Reference: patent US10308644B2, “Heterocyclic compounds as immunomodulators” (Incyte Corporation, priority 2016, dated 2019)

Biological target: PD-1/PD-L1 (Homo sapiens (Human), UniProt Q9NZQ7)
Experiment: PD-1/PD-L1 Homogeneous Time-Resolved Fluorescence (HTRF) Binding Assay
Conditions: recombinant human PD-1 (3 nM) and PD-L1 (10 nM), 25° C., PBS pH 7.4
In short: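 Fc-tagged human PD-1 (25-167, 3 nM) and His-tagged PD-L1 (19-238, 10 nM) preincubated with inhibitor 40 min in PBS pH 7.4, 0.05% Tween-20, 0.1% BSA, 1% DMSO, 25 °C. Binding detected by HTRF (Eu anti-IgG/APC anti-His, 665/620 nm) after 60 min; IC50 from percent control activity.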

Chain of PD-1/PD-L1 (Q9NZQ7 19-238): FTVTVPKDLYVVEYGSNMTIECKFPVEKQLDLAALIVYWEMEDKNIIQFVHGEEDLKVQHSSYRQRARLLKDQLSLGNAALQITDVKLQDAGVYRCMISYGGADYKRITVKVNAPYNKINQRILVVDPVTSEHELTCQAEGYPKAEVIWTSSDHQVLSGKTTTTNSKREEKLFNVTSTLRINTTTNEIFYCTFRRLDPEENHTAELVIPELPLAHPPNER

Structure (SMILES)	IC50 [nM]
Cc1c(Nc2nccc3cc(CN4CC[C@](C)(O)C4)cnc23)cccc1-c1cccc(-c2nc3cc(CN4CC[C@@](C)(C(=O)O)C4)cc(C#N)c3o2)c1C [Example 200, (R)-1-((7-cyano-2-(3′-(3-(((S)-3-hydroxy-3-methylpyrrolidin-1-yl)methyl)-1,7-naphthyridin-8-ylamino)-2,2′-dimethylbiphenyl-3-yl)benzo[d]oxazol-5-yl)methyl)-3-methylpyrrolidine-3-carboxylic acid]	≤ 10
Cc1c(Nc2nccc3cc(CN4CC[C@@](C)(C(=O)O)C4)cnc23)cccc1-c1cccc(-c2nc3cc(CN[C@@H](C)CO)cc(C#N)c3o2)c1C [Example 215, (R)-1-((8-(3′-(7-cyano-5-(((S)-1-hydroxypropan-2-ylamino)methyl)benzo[d]oxazol-2-yl)-2,2′-dimethylbiphenyl-3-ylamino)-1,7-naphthyridin-3-yl)methyl)-3-methylpyrrolidine-3-carboxylic acid]	≤ 10
Cc1c(-c2nc3cc(CN4CC[C@H](C(=O)O)C4)cc(C#N)c3o2)cccc1-c1cccc(NC(=O)c2nc3c(n2C)CCN(C)C3)c1Cl [Example 50, (S)-1-((2-(2′-chloro-3′-(1,5-dimethyl-4,5,6,7-tetrahydro-1H-imidazo[4,5-c]pyridine-2-carboxamido)-2-methylbiphenyl-3-yl)-7-cyanobenzo[d]oxazol-5-yl)methyl)pyrrolidine-3-carboxylic acid]	≤ 10
Cc1c(-c2nc3cc(CN4CC[C@@H](C(=O)O)C4)cc(C#N)c3o2)cccc1-c1cccc(-c2nc3c(s2)CN(C(=O)CN2CCN(C)CC2)C3)c1C [Example 108, (R)-1-((7-cyano-2-(2,2′-dimethyl-3′-(5-(2-(4-methylpiperazin-1-yl)acetyl)-5,6-dihydro-4H-pyrrolo[3,4-d]thiazol-2-yl)biphenyl-3-yl)benzo[d]oxazol-5-yl)methyl)pyrrolidine-3-carboxylic acid]	≤ 10
Cc1c(Nc2nccc3cc(CN4CCC4)cnc23)cccc1-c1cccc(-c2nc3cc(CN4CC[C@@H](C(=O)O)C4)cc(C#N)c3o2)c1C [Example 135, (R)-1-((2-(3′-(3-(azetidin-1-ylmethyl)-1,7-naphthyridin-8-ylamino)-2,2′-dimethylbiphenyl-3-yl)-7-cyanobenzo[d]oxazol-5-yl)methyl)pyrrolidine-3-carboxylic acid]	≤ 10
Cc1c(-c2nc3cc(CN4CC5CC4CC5O)cc(C#N)c3o2)cccc1-c1cccc(NC(=O)c2nc3c(n2C)CCN(CC2CCC(C(=O)O)CC2)C3)c1Cl (stereo not drawn) [Example 270, trans-4-((2-(2-chloro-3′-(7-cyano-5-((5-hydroxy-2-azabicyclo[2.2.1]heptan-2-yl)methyl)benzo[d]oxazol-2-yl)-2′-methylbiphenyl-3-ylcarbamoyl)-1-methyl-6,7-dihydro-1H-imidazo[4,5-c]pyridin-5(4H)-yl)methyl)cyclohexanecarboxylic acid]	≤ 10
Cc1c(-c2nc3cc(CN4CC[C@@](C)(C(=O)O)C4)cc(C#N)c3o2)cccc1-c1cccc(-c2nc3c(s2)CN(C(=O)CN(C)C)C3)c1C [Example 109, (R)-1-((7-cyano-2-(3′-(5-(2-(dimethylamino)acetyl)-5,6-dihydro-4H-pyrrolo[3,4-d]thiazol-2-yl)-2,2′-dimethylbiphenyl-3-yl)benzo[d]oxazol-5-yl)methyl)-3-methylpyrrolidine-3-carboxylic acid]	≤ 10
Cc1c(-c2nc3cc(CN4CC[C@@H](C(=O)O)C4)cc(Cl)c3o2)cccc1-c1cccc(-c2nc3c(s2)CNCC3)c1C [Example 70, (R)-1-((7-chloro-2-(2,2′-dimethyl-3′-(4,5,6,7-tetrahydrothiazolo[5,4-c]pyridin-2-yl)-[1,1′-biphenyl]-3-yl)benzo[d]oxazol-5-yl)methyl)pyrrolidine-3-carboxylic acid]	≤ 10
Cc1c(Nc2nccc3cc(CNCC4(O)CC4)cnc23)cccc1-c1cccc(-c2nc3cc(CN4CC[C@@](C)(C(=O)O)C4)cc(C#N)c3o2)c1C [Example 199, (R)-1-((7-cyano-2-(3′-(3-(((1-hydroxycyclopropyl)methylamino)methyl)-1,7-naphthyridin-8-ylamino)-2,2′-dimethylbiphenyl-3-yl)benzo[d]oxazol-5-yl)methyl)-3-methylpyrrolidine-3-carboxylic acid]	≤ 10
Cc1c(-c2nc3cc(CN4CC[C@@H](O)C4)cc(C#N)c3o2)cccc1-c1cccc(NC(=O)c2nc3c(n2C)CC(C)(C(=O)O)N(C)C3)c1Cl (stereo partly drawn) [Example 165, 2-(2-chloro-3′-(7-cyano-5-(((R)-3-hydroxypyrrolidin-1-yl)methyl)benzo[d]oxazol-2-yl)-2′-methylbiphenyl-3-ylcarbamoyl)-1,5,6-trimethyl-4,5,6,7-tetrahydro-1H-imidazo[4,5-c]pyridine-6-carboxylic acid]	≤ 10
Cc1c(-c2nc3cc(CN4CC[C@@H](C(=O)O)C4)cc(C#N)c3o2)cccc1-c1cccc(-c2nc3c(s2)C(C)(C)N(C)CC3)c1C [Example 79, (R)-1-((7-cyano-2-(2,2′-dimethyl-3′-(4,4,5-trimethyl-4,5,6,7-tetrahydrothiazolo[5,4-c]pyridin-2-yl)-[1,1′-biphenyl]-3-yl)benzo[d]oxazol-5-yl)methyl)pyrrolidine-3-carboxylic acid]	≤ 10
Cc1c(-c2nc3c(o2)CN(C(=O)CN2CC[C@H](C(=O)O)C2)C3)cccc1-c1cccc(-c2nc3cc(CN4CC[C@@H](O)C4)cc(C#N)c3o2)c1C [Example 131, (S)-1-(2-(2-(3′-(7-cyano-5-(((R)-3-hydroxypyrrolidin-1-yl)methyl)benzo[d]oxazol-2-yl)-2,2′-dimethyl-[1,1′-biphenyl]-3-yl)-4,6-dihydro-5H-pyrrolo[3,4-d]oxazol-5-yl)-2-oxoethyl)pyrrolidine-3-carboxylic acid]	≤ 10
Cc1c(Nc2nccc3cc(CN4CC[C@@H](O)C4)cnc23)cccc1-c1cccc(-c2nc3cc(CN[C@H]4CC[C@@H](C(=O)O)C4)cc(C#N)c3o2)c1C [Example 169, (1R,3S)-3-((7-cyano-2-(3′-(3-(((R)-3-hydroxypyrrolidin-1-yl)methyl)-1,7-naphthyridin-8-ylamino)-2,2′-dimethylbiphenyl-3-yl)benzo[d]oxazol-5-yl)methylamino)cyclopentanecarboxylic acid]	≤ 10

Continued, values first:

IC50 [nM]	Structure (SMILES)
≤ 10	Cc1c(-c2nc3cc(CN4CCC(C(=O)O)CC4)cc(C#N)c3o2)cccc1-c1cccc(Nc2nccc3cc(CN4CC[C@@H](O)C4)cnc23)c1Cl [Example 188, (R)-1-((2-(2′-chloro-3′-(3-((3-hydroxypyrrolidin-1-yl)methyl)-1,7-naphthyridin-8-ylamino)-2-methylbiphenyl-3-yl)-7-cyanobenzo[d]oxazol-5-yl)methyl) piperidine-4-carboxylic acid]
≤ 10	Cc1c(-c2nc3c(o2)CCNC3)cccc1-c1cccc(-c2nc3cc(CN4CC[C@@H](C(=O)O)C4)cc(Cl)c3o2)c1C [Example 74, (R)-1-((7-chloro-2-(2,2′-dimethyl-3′-(4,5,6,7-tetrahydrooxazolo[4,5-c]pyridin-2-yl)-[1,1′-biphenyl]-3-yl)benzo[d]oxazol-5-yl)methyl)pyrrolidine-3-carboxylic acid]
≤ 10	Cc1c(-c2nc3cc(CN4CC[C@@H](C(=O)O)C4)cc(Cl)c3o2)cccc1-c1cccc(N2CCC(N[C@H]3C[C@@H](O)C3)CC2)c1Cl [Example 45, (R)-1-((7-chloro-2-(2′-chloro-3′-(4-((1s,3s)-3-hydroxycyclobutylamino)piperidin-1-yl)-2-methylbiphenyl-3-yl)benzo[d]oxazol-5-yl)methyl)pyrrolidine-3-carboxylic acid]
≤ 10	Cc1c(-c2nc3cc(CN4CC[C@H](C(=O)O)C4)cc(C#N)c3o2)cccc1-c1cccc(NC(=O)c2nc3c(n2C)CCNC3)c1Cl [Example 92, (S)-1-((2-(2′-chloro-2-methyl-3′-(1-methyl-4,5,6,7-tetrahydro-1H-imidazo[4,5-c]pyridine-2-carboxamido)biphenyl-3-yl)-7-cyanobenzo[d]oxazol-5-yl)methyl)pyrrolidine-3-carboxylic acid]
≤ 10	Cc1c(-c2nc3cc(CNCCO)cc(Cl)c3o2)cccc1-c1cccc(NC(=O)c2nc3c(s2)CN(C)CC3)c1Cl [Example 9, N-(2-chloro-3′-(7-chloro-5-(((2-hydroxyethyl)amino)methyl)benzo[d]oxazol-2-yl)-2′-methyl-[1,1′-biphenyl]-3-yl)-5-methyl-4,5,6,7-tetrahydrothiazolo[5,4-c]pyridine-2-carboxamide]
10 to 100	Cc1c(NC(=O)c2nc3c(n2C)CCN(C2CC(F)(F)C2)C3)cccc1-c1cccc(-c2nc3cc(CN4CC[C@H](C(=O)O)C4)cc(C#N)c3o2)c1C [Example 40, (S)-1-((7-cyano-2-(3′-(5-(3,3-difluorocyclobutyl)-1-methyl-4,5,6,7-tetrahydro-1H-imidazo[4,5-c]pyridine-2-carboxamido)-2,2′-dimethylbiphenyl-3-yl)benzo[d]oxazol-5-yl)methyl)pyrrolidine-3-carboxylic acid]
≤ 10	Cc1c(-c2nc3cc(CN4CC[C@@H](C(=O)O)C4)cc(C#N)c3o2)cccc1-c1cccc(-c2nc3c(s2)CN(C(C)C)CC3)c1C [Example 63, (R)-1-((7-cyano-2-(3′-(5-isopropyl-4,5,6,7-tetrahydrothiazolo[5,4-c]pyridin-2-yl)-2,2′-dimethyl-[1,1′-biphenyl]-3-yl)benzo[d]oxazol-5-yl)methyl)pyrrolidine-3-carboxylic acid]
≤ 10	Cc1c(Nc2nccc3cc(CN4CC[C@@H](O)C4)cnc23)cccc1-c1cccc(-c2nc3cc(CN[C@H]4C[C@H](C(=O)O)C4)cc(C#N)c3o2)c1C [Example 181, trans-3-((7-cyano-2-(3′-(3-(((R)-3-hydroxypyrrolidin-1-yl)methyl)-1,7-naphthyridin-8-ylamino)-2,2′-dimethylbiphenyl-3-yl)benzo [d]oxazol-5-yl)methylamino)cyclobutane carboxylic acid]
